What all share (assay): KINOMEscan competition binding
What all share (conditions): compound 10.0 µM

Assay [1] deals with PLK4 (human) (UniProt O00444).
Assay [2] concerns the target RPS6KA4 KD2 (human) (UniProt O75676).
Assay [3] has as its target NEK2 (human) (UniProt P51955).
Assay [4] deals with CHUK (human) (UniProt O15111).
Assay [5] has as its target CSNK2A1 (human) (UniProt P68400).
For assay [6], the target named is RPS6KA5 KD2 (human) (UniProt O75582).
In assay [7] the target is RIOK1 (human) (UniProt Q9BRS2).
Assay [8] has as its target DAPK1 (human) (UniProt P53355).
Assay [9] deals with PIM2 (human) (UniProt Q9P1W9).
Assay [10] deals with STK17B (human) (UniProt O94768).
Assay [11] has as its target CLK2 (human) (UniProt P49760).
The target in assay [12] is MAP2K4 (human) (UniProt P45985).
In assay [13] the target is MINK1 (human) (UniProt Q8N4C8).
Assay [14] concerns the target DAPK2 (human) (UniProt Q9UIK4).
The target of assay [15] is TAOK1 (human) (UniProt Q7L7X3).
The target of assay [16] is DYRK1B (human) (UniProt Q9Y463).
For assay [17], the target named is TAOK3 (human) (UniProt Q9H2K8).
Assay [18] addresses CDK7 (human) (UniProt P50613).
Assay [19] deals with PIM3 (human) (UniProt Q86V86).
In assay [20] the target is ACVR2A (human) (UniProt P27037).
Assay [21] has as its target STK17A (human) (UniProt Q9UEE5).
Assay [22] has as its target AAK1 (human) (UniProt Q2M2I8).
Assay [23] has as its target DAPK3 (human) (UniProt O43293).
The target of assay [24] is CLK3 (human) (UniProt P49761).
Assay [25] deals with BMP2K (human) (UniProt Q9NSY1).
Assay [26] addresses PIP4K2B (human) (UniProt P78356).
Assay [27] deals with CSNK2A2 (human) (UniProt P19784).
Assay [28] has as its target ACVR2B (human) (UniProt Q13705).
The target in assay [29] is MAPK15 (human) (UniProt Q8TD08).
Assay [30] addresses SRPK3 (human) (UniProt Q9UPE1).
Assay [31] deals with MAP2K3 (human) (UniProt P46734).
Assay [32] has as its target BMPR1B (human) (UniProt O00238).
In assay [33] the target is CLK4 (human) (UniProt Q9HAZ1).
The target of assay [34] is HIPK1 (human) (UniProt Q86Z02).
Assay [35] concerns the target RIOK3 (human) (UniProt O14730).
The target of assay [36] is CLK1 (human) (UniProt P49759).
The target of assay [37] is PIM1 (human) (UniProt P11309).
In assay [38] the target is NLK (human) (UniProt Q9UBE8).
In assay [39] the target is MAPK7 (human) (UniProt Q13164).
Assay [40] addresses ROS1 (human) (UniProt P08922).
Assay [41] has as its target TNK1 (human) (UniProt Q13470).
For assay [42], the target named is DCLK1 (human) (UniProt O15075).
Assay [43] addresses PLK1 (human) (UniProt P53350).
The target in assay [44] is TTK (human) (UniProt P33981).
Assay [45] concerns the target GAK (human) (UniProt O14976).
In assay [46] the target is PLK3 (human) (UniProt Q9H4B4).
Assay [47] deals with TYK2 JH2 pseudokinase (human) (UniProt P29597).
Assay [48] concerns the target PIK3CB (human) (UniProt P42338).
Assay [49] concerns the target ZAP70 (human) (UniProt P43403).
Assay [50] deals with EGFR (human), P00533 [G719C; 746-750 del].
Assay [51] deals with PTK2 (human) (UniProt Q05397).
The target of assay [52] is RPS6KA1 KD2 (human) (UniProt Q15418).
Assay [53] addresses SLK (human) (UniProt Q9H2G2).
Assay [54] relates to EGFR (human), P00533 [A750P; 747-749 del].
Assay [55] concerns the target MYLK (human) (UniProt Q15746).
Assay [56] concerns EGFR (human), P00533 [L858R].
Assay [57] addresses PTK2B (human) (UniProt Q14289).
Assay [58] relates to EGFR (human), P00533 [752-759 del].
Assay [59] addresses ALK (human) (UniProt Q9UM73).
In assay [60] the target is RPS6KA2 KD2 (human) (UniProt Q15349).
Assay [61] has as its system EGFR (human), P00533 [747-751 del / S ins].
In assay [62] the test system is EGFR (human), P00533 [P753S; 747-752 del].
In assay [63] the target is STK33 (human) (UniProt Q9BYT3).
The test system of assay [64] is EGFR (human), P00533 [L861Q].

DAPK2 (human), sequence (Q9UIK4 whole entry, looked up): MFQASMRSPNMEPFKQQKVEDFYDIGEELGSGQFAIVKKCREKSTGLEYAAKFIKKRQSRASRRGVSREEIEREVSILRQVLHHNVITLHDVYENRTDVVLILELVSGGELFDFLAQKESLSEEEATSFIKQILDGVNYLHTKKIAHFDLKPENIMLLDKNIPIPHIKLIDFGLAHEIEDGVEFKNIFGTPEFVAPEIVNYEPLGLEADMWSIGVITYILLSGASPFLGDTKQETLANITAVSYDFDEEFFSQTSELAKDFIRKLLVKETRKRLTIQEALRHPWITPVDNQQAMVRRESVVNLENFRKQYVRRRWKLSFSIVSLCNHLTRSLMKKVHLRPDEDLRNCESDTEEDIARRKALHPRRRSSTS
GAK (human), sequence (O14976 whole entry, looked up): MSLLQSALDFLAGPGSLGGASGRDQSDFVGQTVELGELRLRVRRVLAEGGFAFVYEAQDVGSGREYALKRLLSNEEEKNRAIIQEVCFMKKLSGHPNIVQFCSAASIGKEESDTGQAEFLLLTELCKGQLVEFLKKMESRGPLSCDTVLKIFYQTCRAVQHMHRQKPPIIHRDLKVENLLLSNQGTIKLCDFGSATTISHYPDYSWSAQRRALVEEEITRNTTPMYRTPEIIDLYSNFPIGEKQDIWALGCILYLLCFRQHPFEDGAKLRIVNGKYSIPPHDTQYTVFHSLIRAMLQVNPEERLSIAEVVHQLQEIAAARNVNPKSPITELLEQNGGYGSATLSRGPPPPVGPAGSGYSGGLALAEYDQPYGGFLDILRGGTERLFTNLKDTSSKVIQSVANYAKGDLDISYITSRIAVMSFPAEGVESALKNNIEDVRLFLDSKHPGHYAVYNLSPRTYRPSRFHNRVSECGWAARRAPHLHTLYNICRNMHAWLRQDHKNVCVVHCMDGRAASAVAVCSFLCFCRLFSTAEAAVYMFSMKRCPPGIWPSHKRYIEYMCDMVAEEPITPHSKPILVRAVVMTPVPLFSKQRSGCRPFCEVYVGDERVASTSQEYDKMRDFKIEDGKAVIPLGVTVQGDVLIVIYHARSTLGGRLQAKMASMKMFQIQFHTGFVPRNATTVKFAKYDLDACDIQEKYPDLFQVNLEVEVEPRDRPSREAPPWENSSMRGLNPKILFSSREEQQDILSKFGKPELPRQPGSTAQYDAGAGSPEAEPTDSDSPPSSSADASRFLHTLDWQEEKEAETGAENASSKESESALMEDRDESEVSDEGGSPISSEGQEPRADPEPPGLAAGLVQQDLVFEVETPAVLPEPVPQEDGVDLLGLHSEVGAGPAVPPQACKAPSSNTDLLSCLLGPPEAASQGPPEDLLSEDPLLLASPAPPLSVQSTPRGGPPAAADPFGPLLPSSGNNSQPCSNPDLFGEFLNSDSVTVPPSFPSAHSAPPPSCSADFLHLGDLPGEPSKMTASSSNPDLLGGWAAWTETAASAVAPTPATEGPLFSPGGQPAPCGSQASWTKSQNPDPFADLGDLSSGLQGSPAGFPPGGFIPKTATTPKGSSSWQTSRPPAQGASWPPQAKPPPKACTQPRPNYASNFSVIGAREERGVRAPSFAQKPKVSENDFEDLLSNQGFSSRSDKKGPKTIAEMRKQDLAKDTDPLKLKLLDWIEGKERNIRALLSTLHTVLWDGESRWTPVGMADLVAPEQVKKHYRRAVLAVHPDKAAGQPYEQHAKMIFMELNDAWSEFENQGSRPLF
PLK3 (human), sequence (Q9H4B4 whole entry, looked up): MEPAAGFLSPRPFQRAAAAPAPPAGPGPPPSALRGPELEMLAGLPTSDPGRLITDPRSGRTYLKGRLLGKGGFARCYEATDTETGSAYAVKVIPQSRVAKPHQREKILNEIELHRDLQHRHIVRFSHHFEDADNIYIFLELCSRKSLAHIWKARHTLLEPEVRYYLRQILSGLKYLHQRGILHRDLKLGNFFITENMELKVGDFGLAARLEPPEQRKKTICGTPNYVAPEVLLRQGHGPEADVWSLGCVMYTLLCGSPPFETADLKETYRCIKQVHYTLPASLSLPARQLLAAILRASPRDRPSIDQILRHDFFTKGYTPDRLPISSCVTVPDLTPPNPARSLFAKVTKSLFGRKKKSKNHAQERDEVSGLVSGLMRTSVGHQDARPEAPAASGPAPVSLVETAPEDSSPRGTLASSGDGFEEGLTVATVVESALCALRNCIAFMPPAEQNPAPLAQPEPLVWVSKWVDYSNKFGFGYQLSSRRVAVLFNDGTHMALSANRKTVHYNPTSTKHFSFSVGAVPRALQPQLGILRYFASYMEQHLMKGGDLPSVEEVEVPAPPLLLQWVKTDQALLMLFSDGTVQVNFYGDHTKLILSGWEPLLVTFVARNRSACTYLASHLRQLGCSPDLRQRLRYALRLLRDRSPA
PLK4 (human), sequence (O00444 whole entry, looked up): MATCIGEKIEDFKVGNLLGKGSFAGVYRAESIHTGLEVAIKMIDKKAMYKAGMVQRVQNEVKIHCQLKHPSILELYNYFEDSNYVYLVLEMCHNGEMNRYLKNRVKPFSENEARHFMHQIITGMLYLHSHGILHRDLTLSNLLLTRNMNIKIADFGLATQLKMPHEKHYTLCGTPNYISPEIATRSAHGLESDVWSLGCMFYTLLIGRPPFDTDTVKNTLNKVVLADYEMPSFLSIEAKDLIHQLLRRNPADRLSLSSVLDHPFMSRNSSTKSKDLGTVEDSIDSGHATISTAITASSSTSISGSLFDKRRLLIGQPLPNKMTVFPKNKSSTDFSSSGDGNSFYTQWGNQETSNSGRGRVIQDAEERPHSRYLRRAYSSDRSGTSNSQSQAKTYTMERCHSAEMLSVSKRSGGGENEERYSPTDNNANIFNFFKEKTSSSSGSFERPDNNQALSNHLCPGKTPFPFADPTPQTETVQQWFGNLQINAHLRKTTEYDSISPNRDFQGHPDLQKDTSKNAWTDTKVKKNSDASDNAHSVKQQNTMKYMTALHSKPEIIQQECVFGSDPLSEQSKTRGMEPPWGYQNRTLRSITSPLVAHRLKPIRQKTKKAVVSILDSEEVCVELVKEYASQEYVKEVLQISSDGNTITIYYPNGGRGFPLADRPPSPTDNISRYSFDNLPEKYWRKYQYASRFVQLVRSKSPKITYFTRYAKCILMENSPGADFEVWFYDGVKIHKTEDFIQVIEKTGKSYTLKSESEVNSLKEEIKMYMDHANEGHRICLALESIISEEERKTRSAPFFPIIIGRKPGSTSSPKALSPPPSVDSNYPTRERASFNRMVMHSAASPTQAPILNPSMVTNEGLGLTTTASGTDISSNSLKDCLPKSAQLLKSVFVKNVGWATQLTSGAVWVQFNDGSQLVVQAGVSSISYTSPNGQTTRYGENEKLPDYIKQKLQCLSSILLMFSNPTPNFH
TTK (human), sequence (P33981 whole entry, looked up): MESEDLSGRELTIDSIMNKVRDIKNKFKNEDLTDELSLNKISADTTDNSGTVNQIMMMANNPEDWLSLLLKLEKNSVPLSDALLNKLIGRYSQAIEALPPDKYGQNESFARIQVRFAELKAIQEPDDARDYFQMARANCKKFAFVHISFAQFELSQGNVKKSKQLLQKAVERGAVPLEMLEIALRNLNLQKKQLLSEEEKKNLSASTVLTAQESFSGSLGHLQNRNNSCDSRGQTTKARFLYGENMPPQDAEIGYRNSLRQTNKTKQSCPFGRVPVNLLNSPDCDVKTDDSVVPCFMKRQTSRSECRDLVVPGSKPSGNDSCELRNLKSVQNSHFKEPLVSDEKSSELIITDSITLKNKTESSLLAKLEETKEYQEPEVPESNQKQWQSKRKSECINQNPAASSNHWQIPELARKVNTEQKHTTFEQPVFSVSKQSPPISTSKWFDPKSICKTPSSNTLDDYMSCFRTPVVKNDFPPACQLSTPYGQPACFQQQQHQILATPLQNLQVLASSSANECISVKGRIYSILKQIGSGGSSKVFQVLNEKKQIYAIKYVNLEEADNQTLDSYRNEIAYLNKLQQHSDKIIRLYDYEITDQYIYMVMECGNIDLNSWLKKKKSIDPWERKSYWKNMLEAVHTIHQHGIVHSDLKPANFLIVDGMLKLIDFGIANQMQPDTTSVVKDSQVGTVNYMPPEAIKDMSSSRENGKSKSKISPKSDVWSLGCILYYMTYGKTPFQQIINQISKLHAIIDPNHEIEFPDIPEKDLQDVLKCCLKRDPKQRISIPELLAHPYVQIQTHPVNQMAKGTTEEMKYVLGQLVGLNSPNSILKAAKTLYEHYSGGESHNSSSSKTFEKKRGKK
RPS6KA4 KD2 (human), sequence (O75676 whole entry, looked up): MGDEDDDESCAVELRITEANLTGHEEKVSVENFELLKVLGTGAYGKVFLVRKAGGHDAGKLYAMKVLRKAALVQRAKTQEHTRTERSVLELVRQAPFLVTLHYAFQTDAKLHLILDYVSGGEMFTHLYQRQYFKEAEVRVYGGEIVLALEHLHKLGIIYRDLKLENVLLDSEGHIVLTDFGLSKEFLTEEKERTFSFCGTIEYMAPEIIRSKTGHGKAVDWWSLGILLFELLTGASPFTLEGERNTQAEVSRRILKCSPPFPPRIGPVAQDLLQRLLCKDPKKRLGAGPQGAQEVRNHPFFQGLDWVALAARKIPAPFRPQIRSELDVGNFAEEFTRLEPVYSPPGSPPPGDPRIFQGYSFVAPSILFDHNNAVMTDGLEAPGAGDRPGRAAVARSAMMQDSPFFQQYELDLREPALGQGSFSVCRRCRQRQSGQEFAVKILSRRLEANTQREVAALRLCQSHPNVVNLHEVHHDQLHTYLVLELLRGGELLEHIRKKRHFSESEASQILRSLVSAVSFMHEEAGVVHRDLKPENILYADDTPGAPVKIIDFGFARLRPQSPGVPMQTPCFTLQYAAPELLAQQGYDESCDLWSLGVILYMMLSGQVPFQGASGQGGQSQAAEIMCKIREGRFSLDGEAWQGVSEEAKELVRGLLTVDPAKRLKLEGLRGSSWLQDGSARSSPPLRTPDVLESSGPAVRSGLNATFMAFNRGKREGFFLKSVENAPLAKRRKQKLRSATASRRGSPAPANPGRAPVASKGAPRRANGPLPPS

With `N=C1NC(=O)/C(=C/c2c[nH]c(=O)c(-c3ccc(S(N)(=O)=O)cc3)c2)S1`, the kinase still bound, per cent of control in assay [1] stood at 24%; in assay [2], 0.9%; in assay [3] it was 30%; in assay [4], 18%; in assay [5] it was 26%; in assay [6], 2.2%. For the same molecule, the kinase still bound, per cent of control in [7] was determined as 31%; in [8], 12%; in assay [9] it was 4.8%; in assay [10], 28%; in assay [11], 5.1%; in [12], 24%. Further, the kinase still bound, per cent of control turned out to be 24% in assay [13]; 5.2% in assay [14]; 4.2% in [15]; 23% in assay [16]; 22% in assay [17]; 26% in [18]. In addition, the kinase still bound, per cent of control in assay [19] worked out at 12%; in assay [20], 25%; in [21], 23%; in [22], 13%; in assay [23], 9.4%; in assay [24], 3.5%. Besides, the kinase still bound, per cent of control in [25] stood at 13%; in [26], 22%; in assay [27] it was 25%; in assay [28] it was 16%; in assay [29] it was 3.3%; in [30] it was 33%. In addition, the kinase still bound, per cent of control in [31] is 2.2%; in assay [32], 5.7%; in [33] it was 28%; in assay [34], 16%; in assay [35], 17%; in assay [36], 16%. The kinase still bound, per cent of control in assay [37] is 16%.
Take `COc1cc(N2CCC(C(N)=O)CC2)ccc1Nc1ncc2c(n1)N(C1CCCC1)[C@@H]1CCC[C@@H]1C(=O)N2C`: the kinase still bound, per cent of control is 28% in [1]; 31% in [38]; 0.1% in assay [39]; 31% in assay [40]; 18% in assay [41]; 15% in [42]. The kinase still bound, per cent of control came out at 19% in assay [43], 10% in assay [44], 12% in [45] and 4.3% in assay [46].
As to `O=C1NC(=O)/C(=C/c2cc(-c3ccc(N4CCNCC4)nc3)c[nH]c2=O)S1`, the kinase still bound, per cent of control in [2] was 3.2%; in assay [8], 4.4%; in assay [9] it was 14%; in assay [10], 18%; in assay [47], 14%; in [48], 6.2%. The kinase still bound, per cent of control came out at 10% in [14], 11% in assay [49], 30% in assay [19] and 10% in [23].
Turning to `COc1cc(C(=O)NC2CCN(C)CC2)ccc1Nc1ncc2c(n1)N(CCc1ccccc1)CCC(=O)N2C`, the kinase still bound, per cent of control in assay [50] is 23%; in assay [51] it was 34%; in [52], 32%; in [53], 22%; in assay [54], 19%; in assay [55] it was 31%. Also, the kinase still bound, per cent of control in assay [56] was determined as 22%; in [57], 17%; in [58], 33%; in assay [59] it was 22%; in assay [43], 1.9%; in assay [60] it was 32%. Further, the kinase still bound, per cent of control in [61] turned out to be 28%; in [44], 5.2%; in [62] it was 31%; in assay [45] it was 6.4%; in [63], 13%; in assay [64], 28%. The kinase still bound, per cent of control in assay [46] amounted to 6.5%.

For the origin of these results see the kinase profiling compilation of Christmann-Franck et al. (2016).
